Assays:
[1] = Stability test in liver microsomes (rat); type: in vitro ADME; conditions: rat liver microsomes 0.5 mg/mL, 1 μM compound
Protocol: (§1) Both male CD-1 mouse pooled liver microsomes and male SD rat pooled liver microsomes were purchased from BioreclamationIVT Corporation, USA.
(§2) The test compound stock solution was diluted with an organic solvent (usually a mixture of acetonitrile, methanol and water with various ratios, depending on the solubility of the compound, if necessary, 1 N hydrochloric acid or 1 N sodium hydroxide would be added to facilitate solubilization) to the 0.1 mM (the final concentration of the compound in the reaction system was 1 μM) and the concentration percentage of the organic solvents in the incubation system no more than 1% (wherein the percentage of DMSO was required to be no more than 0.1%). An appropriate amount of 100 mM NADP, 500 mM G-6-P and 100 Unit/mL G-6-PDH were mixed and diluted with ultrapure water (the final system contains 1 mM NADP, 5 mM G-6-P and 1 Unit/mL G-6-PDH), pre-incubated in a 37° C. water bath for 10 minutes and then placed on ice for use as a NADPH regeneration solution. 20 mg/mL liver microsomes solution and 200 mM phosphate buffer were mixed, and diluted with ultrapure water to give a liver microsomes solution containing 2.5 mg/mL liver microsomes (the final concentration of the reaction system is 0.5 mg/mL) and 50 mM phosphate buffer. The diluted liver microsomes solution was mixed with 0.1 mM compound solution, a mixture of 100 mM EDTA, 300 mM MgCl2 solution, 200 mM phosphate buffer (the final system was 3 mM MgCl2, 1 mM EDTA and 50 mM phosphate buffer) and water in an appropriate volume was added. Finally, the NADPH regeneration solution was added, then the reaction solution was placed in a 37° C. water bath to start the reaction (the reaction time was 30 minutes), and the reaction was stopped by adding the ice-cold acetonitrile reaction stopping solution containing the internal standard. The 0-minute sample was not incubated in a 37° C. water bath, and its difference from the 30-minute sample further lies in that the ice-cold acetonitrile reaction stopping solution containing the internal standard was added first, and then the NADPH regeneration solution was added. The sample added with the reaction stopping internal standard solution was vortexed and mixed well, and then centrifuged at 4400 rpm for 10 minutes. The supernatant was taken and diluted ten times with 50% methanol for LC-MS/MS analysis.
(§3) LC-MS/MS was used to determine the concentration of the compound in the sample. The percentage of the remaining compound after 30 minutes of incubation comparing with that in the 0-minute sample was calculated using the peak area ratio of the compound to the internal standard as an indicator, to evaluate the metabolic stability of the compound.

[2] = Stability test in liver microsomes (mouse); type: in vitro ADME; conditions: mouse liver microsomes 0.5 mg/mL, 1 μM compound
Protocol: as §1, §2, §3

[3] = tested on: anti-IgD antibody-induced B cell activation in mice whole blood; assay: In vivo efficacy of the inhibitory effect on BTK target: anti-IgD antibody-induced B cell activation in mice whole blood after oral dosing; set-up: species or system mouse; conditions: 5 mg/kg oral single dose, 16 h
Protocol: Objects: B cells in mice whole blood were induced and activated by the anti-IgD antibody, and the inhibitory effect of the compound of the present invention on B cell activation in vivo was studied, so as to determine the inhibitory effect of the compound of the present invention on the BTK target in vivo.
Methods: C57BL/6 mice (female, 18-20 g, purchased from Shanghai Lingchang Biotechnology Co., Ltd.) were grouped according to Table 1.
The animals of each group were administered, then were placed in CO2 for anesthesia at designated time points, blood samples were taken from […] via retro-orbital bleeding, and heparin was used for anticoagulation; 90 μL of whole blood was taken from mice of each group, and added to a 96 well culture plate, and anti-mouse IgD antibody (BIO-RAD, Cat #MCA4693) was added to each well to a final concentration of […] (respectively for each drug-treated group and anti-IgD antibody-inducted vehicle group); in addition, 90 μL of whole blood of mice in the vehicle group was taken and added to the 96-well culture plate, and PBS (phosphate buffer, GIBCO, Cat #C20012500BT) was added to each well to a final concentration of 0.01 μg/L (namely, the vehicle control group); Each group was mixed well and incubated in a 37° C./5% CO2 incubator for 4 hours. In addition, the blood of mice in the drug-treated group was centrifuged to separate plasma for blood concentration analysis.
B cell activation ratio=percentage of CD69^+CD19^+ double positive B cells/percentage of CD19^+ single positive B cells
Inhibition ratio=(percentage of B cell activation ratio in anti-IgD antibody-induced vehicle group−percentage of B cell activation ratio in drug-treated group)/(percentage of B cell activation ratio in anti-IgD antibody−induced vehicle group-percentage of B cell activation ratio in vehicle control group)×100%
All data are represented by mean±standard error. For the comparison between each drug-treated group and the anti-IgD antibody-induced vehicle group, p value was calculated by Graphpad Prism using one-way ANOVA analysis of variance and Dunnett's test, and for the comparison between each drug-treated group, p value was calculated by using unpaired t test.

SMILES: C[C@H]1CN(C2COC2)C[C@H](C)N1c1ccc(Nc2cc(-c3ccnc(-n4ccn5c6c(cc5c4=O)CC(C)(C)C6)c3CO)cn(C)c2=O)nc1 [Compound 1, 2-(5-((5-((2S,6S)-2,6-dimethyl-4-(oxetan-3-yl)piperazin-1-yl)pyridin-2-yl)amino)-3′-(hydroxymethyl)-1-methyl-6-oxo-1,6-dihydro-[3,4′-bipyridin]-2′-yl)-7,7-dimethyl-7,8-dihydro-2H-cyclopenta[4,5]pyrrolo[1,2-a]pyrazin-1(6H)-one]
- RLM, percentage of the remaining compound after 30 minutes of incubation [1]: 87.9%
- MLM, percentage of the remaining compound after 30 minutes of incubation [2]: 91.6%
- Inhibition ratio (%) on B cell activation [3]: 60%
- B cell activation ratio (the population of activated B cells in total B cells) ([3]; mean ± standard error): 16.0 ± 3.9
- Inhibition ratio (%) on B cell activation ([3]; listed as compound 1): 60%
